Counter-ions that a name gives are not always drawn. The source made the active and inactive calls.
Legend:
[1] = C. albicans growth with fluconazole, confirmation, fluorescence, retest (AID 2467); type: functional, cell-based
[2] = target: ATP-dependent molecular chaperone HSP82 (Candida albicans (strain WO-1) (Yeast), UniProt C4YTQ8); experiment: loss of DOC-induced GRE-beta-galactosidase reporter signal, dose response, Hsp90 inhibitor project, S. cerevisiae, luminescence (AID 2400); type: functional, cell-based;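 note: beta-galactosidase luminescence from glucocorticoid response element reporter as proxy for Hsp90 function; inhibitor potency where signal loss means Hsp90 inhibition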
[3] = target: NACHT, LRR and PYD domains-containing protein 1 (Homo sapiens, UniProt Q9C000); experiment: NALP1 inhibitors in yeast, dose response, luminescent (AID 488860); type: functional
Saccharomyces cerevisiae = experiment: NALP1 inhibitor project selectivity study, Caspase-1/ASC signal blockade IC50 in S. cerevisiae (AID 488863); type: functional, organism-based
[4] = NIH-3T3 fibroblast cytotoxicity, dose response, cytotoxicity control, cell-based, fluorescence, Alamar Blue, secondary assay (AID 2327); type: functional;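 note: NIH-3T3 mouse fibroblasts cultured with fluconazole at 8 µg/mL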
[5] = target: T1, Serine/threonine-protein phosphatase (Candida dubliniensis (strain CD36 / CBS 7987 / NCPF 3949 / NRRLY-17841) (Yeast), UniProt B9W6M3); experiment: calcineurin pathway inhibitors in yeast reporter, dose response, S. cerevisiae, CDRE-lacZ, luminescence, secondary (AID 2388); type: functional, cell-based;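 note: yeast reporter cells carrying a calcineurin-responsive lacZ construct stimulated with calcium chloride; luminescent beta-galactosidase reporter signal in whole cells rather than isolated phosphatase activity; potency for inhibition where a drop in reporter signal means calcineurin blockade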
T1 sequence (B9W6M3 whole entry): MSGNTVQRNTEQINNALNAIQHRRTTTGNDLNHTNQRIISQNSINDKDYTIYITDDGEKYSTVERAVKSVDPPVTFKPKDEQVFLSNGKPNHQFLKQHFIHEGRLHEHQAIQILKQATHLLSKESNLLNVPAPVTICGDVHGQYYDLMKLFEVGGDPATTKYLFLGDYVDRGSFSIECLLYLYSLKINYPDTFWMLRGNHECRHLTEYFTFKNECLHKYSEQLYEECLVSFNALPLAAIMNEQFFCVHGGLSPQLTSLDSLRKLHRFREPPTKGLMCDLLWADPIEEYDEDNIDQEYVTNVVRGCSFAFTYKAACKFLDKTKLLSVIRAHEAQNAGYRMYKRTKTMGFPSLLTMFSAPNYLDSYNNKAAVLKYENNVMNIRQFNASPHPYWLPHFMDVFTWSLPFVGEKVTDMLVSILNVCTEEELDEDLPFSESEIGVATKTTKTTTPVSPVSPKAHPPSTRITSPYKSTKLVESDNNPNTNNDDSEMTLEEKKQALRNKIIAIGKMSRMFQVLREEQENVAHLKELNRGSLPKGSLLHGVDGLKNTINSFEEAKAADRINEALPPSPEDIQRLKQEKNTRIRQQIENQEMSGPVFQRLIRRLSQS

[6] = target: Alkaline phosphatase, placental type (Homo sapiens, UniProt P05187); experiment: PLAP enzyme inhibitors, confirmation, biochemical, luminescence (AID 1512); type: functional
[7] = target: Glyceraldehyde-3-phosphate dehydrogenase (Homo sapiens, UniProt P04406)
[8] = target: T2, Alkaline phosphatase, tissue-nonspecific isozyme (Homo sapiens, UniProt P05186); experiment: human TNAP enzyme inhibitors, SAR follow-up, biochemical, luminescent, dose response (AID 1056)
T2 sequence (P05186 whole entry): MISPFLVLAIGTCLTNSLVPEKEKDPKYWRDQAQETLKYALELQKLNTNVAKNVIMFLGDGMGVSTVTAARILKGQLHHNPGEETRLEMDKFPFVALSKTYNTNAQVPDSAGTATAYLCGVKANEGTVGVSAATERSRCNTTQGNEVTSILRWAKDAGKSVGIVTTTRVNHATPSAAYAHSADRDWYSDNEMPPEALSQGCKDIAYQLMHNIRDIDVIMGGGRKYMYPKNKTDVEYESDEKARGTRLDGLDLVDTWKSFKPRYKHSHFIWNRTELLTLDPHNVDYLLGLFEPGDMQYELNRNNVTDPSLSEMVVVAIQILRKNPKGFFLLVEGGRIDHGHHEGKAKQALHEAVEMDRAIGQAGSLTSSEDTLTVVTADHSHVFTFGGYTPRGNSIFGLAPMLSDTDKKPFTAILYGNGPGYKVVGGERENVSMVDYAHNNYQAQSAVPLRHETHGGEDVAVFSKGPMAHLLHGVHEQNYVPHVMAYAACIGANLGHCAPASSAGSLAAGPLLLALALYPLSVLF

[9] = target: T3, Dual specificity protein phosphatase 3 (Homo sapiens, UniProt P51452); experiment: SAR VHR1 Fluorescent Assay for In Vitro dose response studies Set 2. [Related pubchem assays (depositor defined):AID1654, AID1661, AID1878]; type: functional
[10] = target: T4, Dual specificity protein phosphatase 6 (Rattus norvegicus, UniProt Q64346); type: functional;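 note: confirmatory in vitro dose-response testing of MKP-3 inhibition; recombinant His-tagged MKP-3 made in E. coli BL21 with OMFP substrate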
T4 sequence (Q64346 whole entry): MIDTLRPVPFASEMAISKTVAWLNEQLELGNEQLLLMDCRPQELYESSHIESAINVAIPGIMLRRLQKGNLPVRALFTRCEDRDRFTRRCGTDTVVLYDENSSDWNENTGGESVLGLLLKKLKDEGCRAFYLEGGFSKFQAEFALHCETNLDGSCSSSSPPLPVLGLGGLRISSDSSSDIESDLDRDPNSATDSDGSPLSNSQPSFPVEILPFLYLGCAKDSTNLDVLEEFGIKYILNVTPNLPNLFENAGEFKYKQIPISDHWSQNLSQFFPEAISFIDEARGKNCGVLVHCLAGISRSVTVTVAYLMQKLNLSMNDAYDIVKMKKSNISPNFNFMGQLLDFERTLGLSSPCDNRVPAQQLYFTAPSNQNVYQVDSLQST

[11] = target: T3, Dual specificity protein phosphatase 3; experiment: SAR VHR1 Fluorescent Assay for In Vitro dose response studies. [Related pubchem assays (depositor defined):AID1654, AID1661, AID1878, AID1992, AID2004, AID2070, AID2085]; type: functional
[12] = target: T3, Dual specificity protein phosphatase 3; experiment: SAR VHR1 absorbance Assay for In Vitro dose response studies. [Related pubchem assays (depositor defined):AID1654, AID1661, AID1878, AID1992, AID2004]
[13] = target: T5, Tyrosine-protein phosphatase non-receptor type 7 (Homo sapiens, UniProt P35236); experiment: redox-dependent HePTP inhibition, mechanism study, biochemical, fluorescence (AID 2068); type: functional
T5 sequence (P35236 whole entry): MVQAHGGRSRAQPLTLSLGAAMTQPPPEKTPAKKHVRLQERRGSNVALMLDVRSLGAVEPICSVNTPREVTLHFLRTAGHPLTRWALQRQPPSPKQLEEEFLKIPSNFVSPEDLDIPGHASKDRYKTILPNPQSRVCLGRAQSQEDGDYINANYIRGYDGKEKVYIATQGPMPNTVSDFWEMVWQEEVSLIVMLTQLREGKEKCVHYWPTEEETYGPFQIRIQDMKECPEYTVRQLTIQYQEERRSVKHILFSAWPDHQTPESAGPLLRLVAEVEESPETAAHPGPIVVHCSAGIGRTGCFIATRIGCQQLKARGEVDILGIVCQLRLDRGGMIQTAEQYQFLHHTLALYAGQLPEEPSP

INS1 = experiment: beta cell apoptosis inhibitors, cytokine rescue, dose response, luminescence, retest (AID 449756); type: functional, cell-based; details: Rattus norvegicus;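 note: cell death triggered by IL-1 beta plus TNF-alpha plus IFN-gamma mixture; protective hits raise ATP signal compared with cytokine alone wells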
Troponin, cardiac muscle = Troponin, cardiac muscle (Homo sapiens, UniProt P19429+P45379+P63316); experiment: inhibitors of cardiac thin filament calcium sensitivity, dose response, biochemical, fluorescence, cardiac regulated thin filaments, triplicate IC50 (AID 504742); type: protein-complex assay
ORF 73 = ORF 73 (Human herpesvirus 8, UniProt O40947); experiment: inhibitors of C-LANA binding to LBS DNA, dose response, biochemical, fluorescence polarization, cherry-picked samples (AID 504725); design: species or system Human gammaherpesvirus 8;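 note: fluorescence polarization of a labeled DNA duplex reporting LANA DNA binding; potency is for inhibitors that block LANA binding to the DNA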
Paired box protein Pax-8 = Paired box protein Pax-8 (Homo sapiens, UniProt Q06710); experiment: inhibitors of PAX8-driven TPO luciferase reporter, dose response, RMG-I cells, cherry-pick (AID 687027); type: functional, cell-based;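 note: luciferase reporter driven by Pax8 target thyroperoxidase promoter measured by SteadyGlo luminescence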
14-3-3 protein gamma = 14-3-3 protein gamma (Homo sapiens, UniProt P61981); experiment: modulators of 14-3-3 gamma client binding – dose response (AID 711); type: functional
Insulin-degrading enzyme [14] = target: T6, Insulin-degrading enzyme (Homo sapiens, UniProt P14735); experiment: activators of recombinant IDE enzyme, dose response, counter-screen for IDE activator project, biochemical, fluorescence polarization (AID 588681)
T6 sequence (P14735 whole entry): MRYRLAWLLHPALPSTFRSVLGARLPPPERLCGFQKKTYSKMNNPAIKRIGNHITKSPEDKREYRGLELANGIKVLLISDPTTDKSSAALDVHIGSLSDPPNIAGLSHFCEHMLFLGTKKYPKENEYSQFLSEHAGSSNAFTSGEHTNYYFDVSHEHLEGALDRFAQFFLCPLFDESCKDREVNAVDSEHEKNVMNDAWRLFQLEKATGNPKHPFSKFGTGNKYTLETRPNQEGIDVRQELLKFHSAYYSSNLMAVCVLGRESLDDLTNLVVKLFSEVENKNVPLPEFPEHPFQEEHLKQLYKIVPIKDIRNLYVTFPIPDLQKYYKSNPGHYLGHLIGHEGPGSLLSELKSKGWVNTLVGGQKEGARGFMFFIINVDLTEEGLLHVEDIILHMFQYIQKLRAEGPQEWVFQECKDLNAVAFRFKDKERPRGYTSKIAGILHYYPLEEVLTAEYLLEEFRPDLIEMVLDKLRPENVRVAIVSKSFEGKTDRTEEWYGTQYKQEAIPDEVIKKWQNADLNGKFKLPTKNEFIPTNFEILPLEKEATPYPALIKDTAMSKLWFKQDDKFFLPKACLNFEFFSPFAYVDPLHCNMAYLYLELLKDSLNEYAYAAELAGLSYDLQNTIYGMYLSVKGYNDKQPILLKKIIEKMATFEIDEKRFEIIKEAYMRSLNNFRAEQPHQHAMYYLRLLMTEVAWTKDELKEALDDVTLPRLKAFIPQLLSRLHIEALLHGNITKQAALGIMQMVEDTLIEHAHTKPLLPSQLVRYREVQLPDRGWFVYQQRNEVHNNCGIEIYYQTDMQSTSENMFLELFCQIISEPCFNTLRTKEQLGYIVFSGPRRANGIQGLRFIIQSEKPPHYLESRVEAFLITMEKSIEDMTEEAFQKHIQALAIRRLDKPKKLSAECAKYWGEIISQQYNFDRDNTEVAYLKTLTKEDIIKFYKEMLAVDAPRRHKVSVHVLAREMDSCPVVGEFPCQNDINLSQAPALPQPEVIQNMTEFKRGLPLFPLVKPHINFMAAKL

Insulin-degrading enzyme [15] = target: T6, Insulin-degrading enzyme; experiment: activators of endogenous IDE in HEK cells, dose response, cell-based, fluorescence polarization (AID 588439); type: functional
HEK293 [16] = experiment: optical interference in Abeta FP readout, dose response, artefact control for IDE activator project, biochemical, fluorescence polarization (AID 588442); type: functional, cell-based; details: Homo sapiens
Nonstructural protein 1 = Nonstructural protein 1 (Influenza A virus, UniProt Q194T2); type: functional, Influenza A virus (A/California/07/2009(H1N1))
HeLa = experiment: HeLa cell cytotoxicity, dose response, cytotoxicity control, 24 h, cherry-picked samples (AID 504726); type: functional, cell-based; details: Homo sapiens;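 note: potency for cytotoxicity as loss of luminescence signal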
Protein S100-A4 = Protein S100-A4 (Homo sapiens, UniProt P26447); experiment: S100A4-myosin IIA binding inhibitor potency, dose response, biochemical, fluorescence polarization, cherry-picked hits (AID 687001); type: functional
HEK293 [17] = experiment: HEK cell cytotoxicity by LDH release, dose response, cytotoxicity control for IDE activator project, fluorescence, HEK cells (AID 588440); type: functional, cell-based; details: Homo sapiens;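 note: cytotoxicity by LDH release measuring loss of membrane integrity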
fMet-Leu-Phe receptor = target: T7, fMet-Leu-Phe receptor (Homo sapiens, UniProt P21462); experiment: FPR ligands, dose response (AID 519); type: functional
T7 sequence (P21462 whole entry): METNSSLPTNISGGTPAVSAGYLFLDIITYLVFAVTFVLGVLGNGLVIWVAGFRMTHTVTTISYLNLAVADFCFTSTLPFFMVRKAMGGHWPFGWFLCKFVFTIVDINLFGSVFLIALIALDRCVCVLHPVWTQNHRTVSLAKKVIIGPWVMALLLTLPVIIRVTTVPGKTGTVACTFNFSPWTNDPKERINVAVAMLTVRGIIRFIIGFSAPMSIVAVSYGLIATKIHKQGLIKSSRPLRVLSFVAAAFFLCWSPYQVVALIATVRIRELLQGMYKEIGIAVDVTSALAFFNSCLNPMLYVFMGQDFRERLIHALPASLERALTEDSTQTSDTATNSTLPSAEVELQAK

[18] = target: Aryl hydrocarbon receptor (Homo sapiens, UniProt P35869); details: Potency;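 note: confirmatory quantitative high-throughput screen measuring activation of the AhR signaling pathway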
Chain of Aryl hydrocarbon receptor (P35869 whole entry): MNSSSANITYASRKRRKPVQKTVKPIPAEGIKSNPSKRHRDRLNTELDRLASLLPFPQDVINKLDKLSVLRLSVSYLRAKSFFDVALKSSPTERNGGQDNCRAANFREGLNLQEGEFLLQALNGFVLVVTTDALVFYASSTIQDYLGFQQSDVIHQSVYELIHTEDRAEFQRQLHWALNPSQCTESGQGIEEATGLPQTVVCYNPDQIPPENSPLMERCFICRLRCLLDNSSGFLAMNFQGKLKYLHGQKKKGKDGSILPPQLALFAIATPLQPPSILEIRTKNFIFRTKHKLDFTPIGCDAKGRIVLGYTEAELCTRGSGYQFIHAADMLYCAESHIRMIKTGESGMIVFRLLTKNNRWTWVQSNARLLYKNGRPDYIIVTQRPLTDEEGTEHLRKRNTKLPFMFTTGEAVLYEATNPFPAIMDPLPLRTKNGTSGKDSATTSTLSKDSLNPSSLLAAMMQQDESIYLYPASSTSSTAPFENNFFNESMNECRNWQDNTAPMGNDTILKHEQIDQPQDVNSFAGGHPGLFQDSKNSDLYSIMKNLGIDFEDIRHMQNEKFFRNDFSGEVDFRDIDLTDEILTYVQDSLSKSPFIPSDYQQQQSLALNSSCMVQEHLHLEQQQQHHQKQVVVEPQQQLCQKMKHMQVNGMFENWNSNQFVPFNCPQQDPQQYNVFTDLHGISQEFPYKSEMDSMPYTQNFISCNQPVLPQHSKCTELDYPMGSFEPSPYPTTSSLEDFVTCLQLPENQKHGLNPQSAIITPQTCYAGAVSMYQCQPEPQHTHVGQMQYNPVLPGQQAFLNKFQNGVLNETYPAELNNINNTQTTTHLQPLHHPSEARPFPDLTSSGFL

T3 sequence (P51452 whole entry): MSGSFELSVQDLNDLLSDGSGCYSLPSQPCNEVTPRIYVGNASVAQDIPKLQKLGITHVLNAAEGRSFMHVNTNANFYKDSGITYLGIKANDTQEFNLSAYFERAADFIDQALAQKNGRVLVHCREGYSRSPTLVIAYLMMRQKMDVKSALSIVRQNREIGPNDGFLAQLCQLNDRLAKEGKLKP
Chain of ATP-dependent molecular chaperone HSP82 (C4YTQ8 whole entry, the tested form may be a part): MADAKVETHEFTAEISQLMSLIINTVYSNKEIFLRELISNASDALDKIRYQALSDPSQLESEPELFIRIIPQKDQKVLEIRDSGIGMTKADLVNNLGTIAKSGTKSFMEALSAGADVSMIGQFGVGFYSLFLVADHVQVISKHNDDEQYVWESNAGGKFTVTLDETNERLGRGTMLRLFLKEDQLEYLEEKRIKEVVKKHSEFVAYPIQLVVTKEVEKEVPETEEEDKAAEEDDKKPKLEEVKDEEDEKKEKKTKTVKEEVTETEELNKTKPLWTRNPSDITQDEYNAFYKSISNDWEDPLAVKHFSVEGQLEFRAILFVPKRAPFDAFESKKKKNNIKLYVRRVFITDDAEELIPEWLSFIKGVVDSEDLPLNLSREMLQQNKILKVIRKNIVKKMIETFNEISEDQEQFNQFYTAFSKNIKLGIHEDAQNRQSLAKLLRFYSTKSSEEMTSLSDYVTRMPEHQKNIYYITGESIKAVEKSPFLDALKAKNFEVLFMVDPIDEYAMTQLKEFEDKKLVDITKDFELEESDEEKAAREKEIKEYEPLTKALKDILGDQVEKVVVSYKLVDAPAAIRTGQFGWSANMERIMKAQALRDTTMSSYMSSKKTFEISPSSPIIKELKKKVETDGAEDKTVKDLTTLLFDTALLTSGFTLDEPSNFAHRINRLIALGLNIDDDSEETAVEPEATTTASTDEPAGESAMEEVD
Chain of Protein S100-A4 (P26447 whole entry): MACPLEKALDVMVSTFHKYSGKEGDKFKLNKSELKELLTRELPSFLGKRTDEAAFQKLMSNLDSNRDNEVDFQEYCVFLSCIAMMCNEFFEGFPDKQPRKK
Chain of ORF 73 (O40947 whole entry): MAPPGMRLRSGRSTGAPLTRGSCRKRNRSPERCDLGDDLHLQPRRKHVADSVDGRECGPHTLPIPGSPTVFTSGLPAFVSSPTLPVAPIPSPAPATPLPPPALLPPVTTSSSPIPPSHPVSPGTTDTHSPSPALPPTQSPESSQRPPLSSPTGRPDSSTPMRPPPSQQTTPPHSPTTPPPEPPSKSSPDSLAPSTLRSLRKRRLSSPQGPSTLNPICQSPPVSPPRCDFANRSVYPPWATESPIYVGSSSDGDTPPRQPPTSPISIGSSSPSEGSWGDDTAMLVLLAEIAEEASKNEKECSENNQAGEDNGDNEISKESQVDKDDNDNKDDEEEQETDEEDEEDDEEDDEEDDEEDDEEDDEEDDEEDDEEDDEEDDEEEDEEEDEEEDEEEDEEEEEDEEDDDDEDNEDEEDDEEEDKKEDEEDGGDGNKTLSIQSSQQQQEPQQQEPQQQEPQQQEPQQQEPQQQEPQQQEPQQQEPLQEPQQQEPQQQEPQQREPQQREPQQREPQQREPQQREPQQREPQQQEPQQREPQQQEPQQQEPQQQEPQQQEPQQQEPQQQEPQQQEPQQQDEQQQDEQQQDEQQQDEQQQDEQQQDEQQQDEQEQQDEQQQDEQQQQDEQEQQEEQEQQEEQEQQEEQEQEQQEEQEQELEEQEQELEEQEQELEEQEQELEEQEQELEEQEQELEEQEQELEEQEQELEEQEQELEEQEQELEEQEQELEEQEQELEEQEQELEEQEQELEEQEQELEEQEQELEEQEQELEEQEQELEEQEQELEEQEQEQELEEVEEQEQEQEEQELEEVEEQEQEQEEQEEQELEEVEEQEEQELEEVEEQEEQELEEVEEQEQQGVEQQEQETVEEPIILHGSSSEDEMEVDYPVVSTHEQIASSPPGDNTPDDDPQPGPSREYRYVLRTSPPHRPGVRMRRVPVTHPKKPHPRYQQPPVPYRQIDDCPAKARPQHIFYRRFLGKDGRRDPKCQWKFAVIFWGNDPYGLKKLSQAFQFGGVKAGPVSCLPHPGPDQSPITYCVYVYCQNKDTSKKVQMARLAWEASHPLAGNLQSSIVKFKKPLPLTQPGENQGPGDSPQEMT
Chain of Nonstructural protein 1 (Q194T2 whole entry): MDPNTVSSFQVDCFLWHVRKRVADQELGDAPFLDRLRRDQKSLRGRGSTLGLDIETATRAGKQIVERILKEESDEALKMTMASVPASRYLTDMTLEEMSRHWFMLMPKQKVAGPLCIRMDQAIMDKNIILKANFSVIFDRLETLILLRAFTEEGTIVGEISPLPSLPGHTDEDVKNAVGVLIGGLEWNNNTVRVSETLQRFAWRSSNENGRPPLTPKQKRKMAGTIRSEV
Chain of Paired box protein Pax-8 (Q06710 whole entry): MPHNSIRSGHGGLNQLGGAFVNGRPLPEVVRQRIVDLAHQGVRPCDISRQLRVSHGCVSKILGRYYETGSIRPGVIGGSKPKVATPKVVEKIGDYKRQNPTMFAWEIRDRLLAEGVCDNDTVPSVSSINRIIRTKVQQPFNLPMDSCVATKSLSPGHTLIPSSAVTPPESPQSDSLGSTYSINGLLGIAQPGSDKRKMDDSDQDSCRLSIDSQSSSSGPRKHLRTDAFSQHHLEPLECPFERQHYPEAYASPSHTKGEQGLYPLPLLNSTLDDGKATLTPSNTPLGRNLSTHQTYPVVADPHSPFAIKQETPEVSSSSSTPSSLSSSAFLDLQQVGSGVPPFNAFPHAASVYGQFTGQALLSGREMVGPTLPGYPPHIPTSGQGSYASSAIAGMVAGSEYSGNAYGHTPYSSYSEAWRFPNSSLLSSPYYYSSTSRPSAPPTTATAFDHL
Chain of 14-3-3 protein gamma (P61981 whole entry): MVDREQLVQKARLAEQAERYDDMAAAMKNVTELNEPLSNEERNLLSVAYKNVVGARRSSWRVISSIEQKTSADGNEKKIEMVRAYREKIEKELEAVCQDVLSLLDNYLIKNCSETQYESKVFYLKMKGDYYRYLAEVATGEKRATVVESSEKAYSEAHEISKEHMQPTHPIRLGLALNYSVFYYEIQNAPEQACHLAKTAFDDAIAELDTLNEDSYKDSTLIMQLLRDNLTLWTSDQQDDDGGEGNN
Chain of Alkaline phosphatase, placental type (P05187 whole entry): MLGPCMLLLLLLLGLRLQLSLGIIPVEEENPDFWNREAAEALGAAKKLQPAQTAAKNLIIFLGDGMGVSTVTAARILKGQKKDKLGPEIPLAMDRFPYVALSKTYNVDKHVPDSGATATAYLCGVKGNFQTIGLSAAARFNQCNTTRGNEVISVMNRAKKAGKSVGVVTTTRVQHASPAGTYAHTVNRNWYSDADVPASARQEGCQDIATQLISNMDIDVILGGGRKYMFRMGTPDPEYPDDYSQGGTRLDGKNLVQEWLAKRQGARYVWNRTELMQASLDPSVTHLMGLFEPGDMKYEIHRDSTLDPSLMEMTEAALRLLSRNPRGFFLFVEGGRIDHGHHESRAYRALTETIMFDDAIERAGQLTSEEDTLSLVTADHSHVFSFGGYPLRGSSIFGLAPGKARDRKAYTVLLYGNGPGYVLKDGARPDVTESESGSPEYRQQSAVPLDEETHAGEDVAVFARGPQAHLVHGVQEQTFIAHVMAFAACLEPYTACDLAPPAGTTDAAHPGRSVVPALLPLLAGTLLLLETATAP
Chain of Glyceraldehyde-3-phosphate dehydrogenase (P04406 whole entry): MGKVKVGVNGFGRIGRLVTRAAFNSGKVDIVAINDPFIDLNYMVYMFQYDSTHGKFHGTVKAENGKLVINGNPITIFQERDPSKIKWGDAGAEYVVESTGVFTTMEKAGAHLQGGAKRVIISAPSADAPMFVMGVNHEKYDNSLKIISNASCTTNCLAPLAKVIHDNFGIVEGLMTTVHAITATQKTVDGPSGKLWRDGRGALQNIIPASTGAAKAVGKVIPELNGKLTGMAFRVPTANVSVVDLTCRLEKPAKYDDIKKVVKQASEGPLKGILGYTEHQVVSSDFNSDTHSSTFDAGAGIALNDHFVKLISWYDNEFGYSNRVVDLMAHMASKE

Cc1cc2ccccn2c1C(C[N+](=O)[O-])c1c(F)cccc1Cl (stereo not drawn)
EC50 [1]: 0.421 µM (active)
EC50 [2]: 4.47 µM (active)
IC50 [3]: 7.92 µM (active)
IC50 (Saccharomyces cerevisiae): 6.44 µM (active)
EC50 [4]: > 160 µM (inactive)
EC50 [5]: 45.4 µM (active)

COc1ccc(-c2cc(-c3ccc4ccccc4c3O)n[nH]2)cc1
IC50 [6]: > 100 µM (inactive)
IC50 [7]: > 100 µM (not active)
IC50 [8]: > 100 µM (inactive)

NS(=O)(=O)c1cc(C(=O)NC2CCCc3ccccc32)ccc1Cl (stereo not drawn)
IC50 [9]: > 100 µM (inactive)
IC50 [10]: > 100 µM (inactive)
IC50 [11]: > 100 µM (inactive)
IC50 [12]: > 100 µM (inactive)
IC50 [13]: > 100 µM (inactive)

COc1cccc(/C=N/Nc2nc3ccccc3n3cnnc23)c1O
AC50 (INS1): 1.84 µM (active)
IC50 (Troponin, cardiac muscle): 7.6 µM (active)

COc1cccc2c1C(=O)c1c(O)c3c(c(O)c1C2=O)C[C@@](O)(C(C)=O)C[C@@H]3O[C@H]1C[C@H](N)[C@H](O)[C@H](C)O1 [DAUNORUBICIN HYDROCHLORIDE]
AC50 (ORF 73): 2.36 µM (active)
AC50 (Paired box protein Pax-8): 1.55 µM (active)
IC50 (14-3-3 protein gamma): < 0.781 µM (active)
EC50 (Insulin-degrading enzyme [14]): > 54.7 µM (inactive)
EC50 (Insulin-degrading enzyme [15]): > 54.7 µM (inactive)
EC50 (HEK293 [16]): > 54.7 µM (inactive)
IC50 (Nonstructural protein 1): 32.7 µM (active)
AC50 (HeLa): 1.73 µM (active)
AC50 (Protein S100-A4): 0.235 µM (active)
IC50 (HEK293 [17]): 17.7 µM (inactive)
Ki (fMet-Leu-Phe receptor): > 66.7 µM (inactive)
AC50 [18]: 12.6 µM (inconclusive)

— ChEMBL document CHEMBL1201862, “PubChem BioAssay data set” (2004)
